From patent publication US12685312B2, “Sulfonamide apyrase inhibitors” (Texas Crop Science, Inc., priority 2022, dated 2026)

System: apyrase
Test: Screen for apyrase inhibitors (Method 1, in vitro phosphate-release absorbance assay)
Type: biochemical
Details: inhibitor conc at 1 mM stock, 1 hr room temperature, absorbance 630 nm; rounded average of two assay results
How it was run: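 Phosphate-release colorimetric assay (Windsor method) in 60 mM Hepes, 3 mM MgCl2, 3 mM CaCl2, 3 mM ATP, pH 6.5, with compound or DMSO control added. Released phosphate developed with ammonium molybdate and ascorbic acid/TCA, then stopped with citrate/acetic acid.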

% Inhibition of Apyrase [%]	SMILES
26	O=C(Nc1nccs1)c1cccc(NS(=O)(=O)c2ccc(Br)cc2)c1 [I-661, 3-((4-bromophenyl)sulfonamido)-N-(thiazol-2-yl)benzamide]
26	Cc1ccc(NC(=O)c2cccc(NS(=O)(=O)c3cccs3)c2)c(C)c1 [I-662, N-(2,4-dimethylphenyl)-3-(thiophene-2-sulfonamido)benzamide]
25	Cc1ccnc(NC(=O)c2cccc(NS(=O)(=O)c3ccc4c(c3)OCCCO4)c2)c1 [I-663, 3-((3,4-dihydro-2H-benzo[b][1,4]dioxepine)-7-sulfonamido)-N-(4-methylpyridin-2-yl)benzamide]
24	Cc1nc2cc(NC(=O)c3cccc(NS(=O)(=O)c4cccs4)c3)ccc2o1 [I-664, N-(2-methylbenzo[d]oxazol-5-yl)-3-(thiophene-2-sulfonamido)benzamide]
22	O=C(Nc1ccccc1Cl)c1cccc(NS(=O)(=O)c2cccs2)c1 [I-665, N-(2-chlorophenyl)-3-(thiophene-2-sulfonamido)benzamide]
21	O=C(Nc1ccc(Br)cn1)c1cccc(NS(=O)(=O)c2ccc(F)c(Cl)c2)c1 [I-666, N-(5-bromopyridin-2-yl)-3-((3-chloro-4-fluorophenyl)sulfonamido)benzamide]
12	Cc1csc(NC(=O)c2cccc(NS(=O)(=O)c3ccccc3)c2)n1 [I-667, N-(4-methylthiazol-2-yl)-3-(phenylsulfonamido)benzamide]
10	O=C(Nc1cnccc1O)c1cccc(NS(=O)(=O)c2ccc(Cl)c(Cl)c2)c1 [I-668, 3-((3,4-dichlorophenyl)sulfonamido)-N-(4-hydroxypyridin-3-yl)benzamide]
7	Cc1ccc(C)c(S(=O)(=O)Nc2cccc(C(=O)Nc3cnccn3)c2)c1 [I-669, 3-((2,5-dimethylphenyl)sulfonamido)-N-(pyrazin-2-yl)benzamide]
6	O=C(Nc1cnccn1)c1cccc(NS(=O)(=O)c2ccccc2)c1 [I-670, 3-(phenylsulfonamido)-N-(pyrazin-2-yl)benzamide]
2	CCOc1ccc(S(=O)(=O)Nc2cccc(C(=O)Nc3nnc[nH]3)c2)cc1 [I-671, 3-((4-ethoxyphenyl)sulfonamido)-N-(4H-1,2,4-triazol-3-yl)benzamide]
1	O=C(Nc1nnc[nH]1)c1cccc(NS(=O)(=O)c2ccc(Br)cc2)c1 [I-672, 3-((4-bromophenyl)sulfonamido)-N-(4H-1,2,4-triazol-3-yl)benzamide]
79	O=C(Nc1cccc(S(=O)(=O)Nc2ccc(Br)cc2)c1)c1ccsc1 [I-701, N-(3-(N-(4-bromophenyl)sulfamoyl)phenyl)thiophene-3-carboxamide]
73	O=C(Nc1cccc(S(=O)(=O)Nc2ccc(Br)cc2)c1)c1ccc([N+](=O)[O-])s1 [I-702, N-(3-(N-(4-bromophenyl)sulfamoyl)phenyl)-5-nitrothiophene-2-carboxamide]
71	O=C(Nc1cccc(S(=O)(=O)Nc2ccc(Br)cc2)c1)c1ccc(Cl)nc1 [I-703, N-(3-(N-(4-bromophenyl)sulfamoyl)phenyl)-6-chloronicotinamide]
65	CN(c1ccccc1)S(=O)(=O)c1cccc(NC(=O)c2cc3cc(F)ccc3[nH]2)c1 [I-704, 5-fluoro-N-(3-(N-methyl-N-phenylsulfamoyl)phenyl)-1H-indole-2-carboxamide]

% Inhibition of Apyrase [%]	SMILES
64	Cc1cc(C(=O)Nc2cccc(S(=O)(=O)Nc3ccccc3F)c2)c(C)n1C1CC1 [I-705, 1-cyclopropyl-N-(3-(N-(2-fluorophenyl)sulfamoyl)phenyl)-2,5-dimethyl-1H-pyrrole-3-carboxamide]
62	CN(c1ccccc1)S(=O)(=O)c1cccc(NC(=O)c2ccc(Br)s2)c1 [I-706, 5-bromo-N-(3-(N-methyl-N-phenylsulfamoyl)phenyl)thiophene-2-carboxamide]
62	COc1ccccc1NS(=O)(=O)c1cccc(NC(=O)c2c[nH]c3ccccc23)c1 [I-707, N-(3-(N-(2-methoxyphenyl)sulfamoyl)phenyl)-1H-indole-3-carboxamide]
61	Cc1cccc(C(=O)Nc2cccc(S(=O)(=O)Nc3cccc(C(F)(F)F)c3)c2)n1 [I-708, 6-methyl-N-(3-(N-(3-(trifluoromethyl)phenyl)sulfamoyl)phenyl) picolinamide]
61	O=C(Nc1cccc(S(=O)(=O)Nc2ccc(Cl)cc2)c1)c1cc2c(s1)CCCC2 [I-709, N-(3-(N-(4-chlorophenyl)sulfamoyl)phenyl)-4,5,6,7-tetrahydrobenzo[b]thiophene-2-carboxamide]
60	CN(c1ccccc1)S(=O)(=O)c1cccc(NC(=O)c2cccs2)c1 [I-710, N-(3-(N-methyl-N-phenylsulfamoyl)phenyl)thiophene-2-carboxamide]
60	CCOc1ncccc1C(=O)Nc1cccc(S(=O)(=O)N(C)c2ccccc2)c1 [I-711, 2-ethoxy-N-(3-(N-methyl-N-phenylsulfamoyl)phenyl)nicotinamide]
59	O=C(Nc1cccc(S(=O)(=O)Nc2ccc(Cl)cc2)c1)c1ccoc1 [I-712, N-(3-(N-(4-chlorophenyl)sulfamoyl)phenyl)furan-3-carboxamide]
58	Cc1cc(C(=O)Nc2cccc(S(=O)(=O)Nc3ccccc3Cl)c2)sc1C [I-713, N-(3-(N-(2-chlorophenyl)sulfamoyl)phenyl)-4,5-dimethylthiophene-2-carboxamide]
58	COc1ccc(NS(=O)(=O)c2cccc(NC(=O)c3ccc(Cl)nc3)c2)cc1 [I-714, 6-chloro-N-(3-(N-(4-methoxyphenyl)sulfamoyl)phenyl) nicotinamide]
58	O=C(Nc1cccc(S(=O)(=O)Nc2cccc(C(F)(F)F)c2)c1)c1cc2ccccc2o1 [I-715, N-(3-(N-(3-(trifluoromethyl)phenyl)sulfamoyl)phenyl) benzofuran-2-carboxamide]
58	CN(c1ccccc1)S(=O)(=O)c1cccc(NC(=O)c2ccsc2)c1 [I-716, N-(3-(N-methyl-N-phenylsulfamoyl)phenyl)thiophene-3-carboxamide]
58	O=C(Nc1cccc(S(=O)(=O)Nc2ccc(Cl)cc2)c1)c1ccsc1 [I-717, N-(3-(N-(4-chlorophenyl)sulfamoyl)phenyl)thiophene-3-carboxamide]
58	O=C(Nc1cccc(S(=O)(=O)Nc2cccc(C(F)(F)F)c2)c1)c1ccsc1 [I-718, N-(3-(N-(3-(trifluoromethyl)phenyl)sulfamoyl)phenyl) thiophene-3-carboxamide]
58	CN(c1ccccc1)S(=O)(=O)c1cccc(NC(=O)c2cncc(Br)c2)c1 [I-720, 5-bromo-N-(3-(N-methyl-N-phenylsulfamoyl)phenyl)nicotinamide]
57	COC(=O)c1c(C)[nH]c(C(=O)Nc2cccc(S(=O)(=O)Nc3cccc(C(F)(F)F)c3)c2)c1C [I-721, methyl 2,4-dimethyl-5-((3-(N-(3-(trifluoromethyl)phenyl)sulfamoyl)phenyl)carbamoyl)-1H-pyrrole-3-carboxylate]
